The values below come from ChEMBL document CHEMBL1817669, “Design and pharmacological evaluation of PF-4840154, a non-electrophilic reference agonist of the TrpA1 channel” (Bioorg Med Chem Lett, 2011).

Series [1] deals with Transient receptor potential cation channel subfamily V member 1 (Homo sapiens) (UniProt Q8NER1). Nature of the series: Agonist activity at human TRPV1 receptor. The series is classed as functional.
Series [2] has as its target Transient receptor potential cation channel subfamily M member 8 (Homo sapiens) (UniProt Q7Z2W7). The series can be described thus: Agonist activity at human TRPM8 receptor. The format is functional.
Series [3] concerns the target Sodium-dependent noradrenaline transporter (Homo sapiens) (UniProt P23975). The series can be described thus: Inhibition of noradrenaline transporter at 2.8 uM.
Series [4] is described as follows: Aqueous solubility of the compound at pH 7.4. The series is classed as physicochemical.
The species named for series [5] is Mus musculus. The series can be described thus: Antinociceptive activity against formalin-induced inflammatory pain in Trpa1-knock out CD1 mouse assessed as increase in time spent in paw licking at 30 nmol, intraplantar measured every 5 mins for 60 mins. The series is classed as functional, organism-based.
Series [6] can be described thus: Inhibition of chloride channel at 1.5 uM.
Series [7] deals with Transient receptor potential cation channel subfamily M member 8 (Homo sapiens) (UniProt Q7Z2W7). The series can be described thus: Antagonist activity at human TRPM8 receptor. The series is classed as functional.
Sequence of Transient receptor potential cation channel subfamily M member 8 (Homo sapiens) (Q7Z2W7 whole entry, looked up): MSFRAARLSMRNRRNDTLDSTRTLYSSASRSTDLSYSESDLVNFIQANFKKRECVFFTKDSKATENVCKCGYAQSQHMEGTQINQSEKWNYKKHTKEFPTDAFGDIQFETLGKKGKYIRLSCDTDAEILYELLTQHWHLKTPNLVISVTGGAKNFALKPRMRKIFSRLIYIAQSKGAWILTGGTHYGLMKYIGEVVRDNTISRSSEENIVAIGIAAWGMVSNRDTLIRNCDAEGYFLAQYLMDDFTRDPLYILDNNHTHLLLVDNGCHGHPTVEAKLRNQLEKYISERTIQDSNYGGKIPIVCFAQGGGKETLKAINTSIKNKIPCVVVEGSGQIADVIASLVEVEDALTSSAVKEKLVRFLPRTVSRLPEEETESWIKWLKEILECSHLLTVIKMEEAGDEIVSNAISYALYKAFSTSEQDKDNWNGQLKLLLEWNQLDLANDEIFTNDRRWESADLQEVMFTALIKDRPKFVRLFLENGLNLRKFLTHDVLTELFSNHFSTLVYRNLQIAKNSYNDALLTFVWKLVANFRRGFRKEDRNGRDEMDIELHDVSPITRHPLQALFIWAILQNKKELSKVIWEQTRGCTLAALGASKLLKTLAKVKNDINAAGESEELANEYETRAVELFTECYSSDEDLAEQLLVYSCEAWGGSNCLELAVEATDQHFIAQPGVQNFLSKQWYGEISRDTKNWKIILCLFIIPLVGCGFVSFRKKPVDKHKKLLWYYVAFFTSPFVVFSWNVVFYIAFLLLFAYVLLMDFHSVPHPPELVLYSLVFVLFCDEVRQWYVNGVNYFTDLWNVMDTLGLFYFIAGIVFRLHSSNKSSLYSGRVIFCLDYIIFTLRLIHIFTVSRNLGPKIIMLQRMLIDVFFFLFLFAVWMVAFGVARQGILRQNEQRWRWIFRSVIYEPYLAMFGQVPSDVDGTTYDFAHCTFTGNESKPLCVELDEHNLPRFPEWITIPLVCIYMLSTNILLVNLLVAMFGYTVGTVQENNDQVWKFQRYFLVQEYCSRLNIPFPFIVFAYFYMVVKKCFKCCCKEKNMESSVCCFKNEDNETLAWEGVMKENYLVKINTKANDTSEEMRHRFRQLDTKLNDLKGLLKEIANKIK
Series [8] relates to Mus musculus. The series can be described thus: Antinociceptive activity against formalin-induced inflammatory pain in Trpa1-positive CD1 mouse assessed as increase in time spent in paw licking at 30 nmol, intraplantar measured every 5 mins for 60 mins in pretreated with 100 mg/kg Trpa1 antagonist HC003031. The arrangement: dose 100 mg/kg. The series is classed as functional, organism-based.

For series [9], the species on record is Mus musculus. The series can be described thus: Antinociceptive activity against formalin-induced inflammatory pain in Trpa1-positive CD1 mouse assessed as increase in time spent in paw licking at 30 nmol, intraplantar measured every 5 mins for 60 mins. The series is classed as functional, organism-based.
Series [10] has as its target Transient receptor potential cation channel subfamily V member 4 (Homo sapiens) (UniProt Q9HBA0). The series can be described thus: Agonist activity at human TRPV4 receptor. The format is functional.
The target of series [11] is D(3) dopamine receptor (Homo sapiens) (UniProt P35462). Nature of the series: Inhibition of dopamine D3 receptor at 1.9 uM.
The target of series [12] is Sodium-dependent dopamine transporter (Homo sapiens) (UniProt Q01959). Nature of the series: Inhibition of dopamine transporter at 1.6 uM.
Series [13] addresses Transient receptor potential cation channel subfamily V member 4 (Homo sapiens) (UniProt Q9HBA0). The series can be described thus: Antagonist activity at human TRPV4 receptor. The series is classed as functional.
Series [14] deals with Transient receptor potential cation channel subfamily V member 1 (Homo sapiens) (UniProt Q8NER1). Nature of the series: Antagonist activity at human TRPV1 receptor. The series is classed as functional.
Series [15] addresses Transient receptor potential cation channel subfamily A member 1 (Rattus norvegicus, UniProt Q6RI86). Nature of the series: Agonist activity at rat TRPA1 channel expressed in HEK293 cells assessed as calcium influx measured at every 1 second for 60 seconds by fluorescence analysis. The series is classed as functional, cell-based.
Series [16] in a line: Inhibition of sigma receptor at 1.1 uM.
Series [17] addresses Transient receptor potential cation channel subfamily A member 1 (Homo sapiens, UniProt O75762). The series can be described thus: Agonist activity at human TRPA1 channel expressed in HEK293 cells assessed as calcium influx measured at every 1 second for 60 seconds by fluorescence analysis. The series is classed as functional, cell-based.
Series [18] has as its target Transient receptor potential cation channel subfamily A member 1 (Rattus norvegicus) (UniProt Q6RI86). The series can be described thus: Agonist activity at rat TRPA1 channel expressed in HEK293 cells assessed as calcium influx at 10 uM measured at every 1 second for 60 seconds by fluorescence analysis. The format is functional, cell-based.

Values after ≈ are worked out from the molar mass of the structure shown. Active and inactive are the calls of the source. The rule behind the calls is not given here.

Sequence of Transient receptor potential cation channel subfamily A member 1 (Rattus norvegicus, UniProt Q6RI86) (Q6RI86 whole entry): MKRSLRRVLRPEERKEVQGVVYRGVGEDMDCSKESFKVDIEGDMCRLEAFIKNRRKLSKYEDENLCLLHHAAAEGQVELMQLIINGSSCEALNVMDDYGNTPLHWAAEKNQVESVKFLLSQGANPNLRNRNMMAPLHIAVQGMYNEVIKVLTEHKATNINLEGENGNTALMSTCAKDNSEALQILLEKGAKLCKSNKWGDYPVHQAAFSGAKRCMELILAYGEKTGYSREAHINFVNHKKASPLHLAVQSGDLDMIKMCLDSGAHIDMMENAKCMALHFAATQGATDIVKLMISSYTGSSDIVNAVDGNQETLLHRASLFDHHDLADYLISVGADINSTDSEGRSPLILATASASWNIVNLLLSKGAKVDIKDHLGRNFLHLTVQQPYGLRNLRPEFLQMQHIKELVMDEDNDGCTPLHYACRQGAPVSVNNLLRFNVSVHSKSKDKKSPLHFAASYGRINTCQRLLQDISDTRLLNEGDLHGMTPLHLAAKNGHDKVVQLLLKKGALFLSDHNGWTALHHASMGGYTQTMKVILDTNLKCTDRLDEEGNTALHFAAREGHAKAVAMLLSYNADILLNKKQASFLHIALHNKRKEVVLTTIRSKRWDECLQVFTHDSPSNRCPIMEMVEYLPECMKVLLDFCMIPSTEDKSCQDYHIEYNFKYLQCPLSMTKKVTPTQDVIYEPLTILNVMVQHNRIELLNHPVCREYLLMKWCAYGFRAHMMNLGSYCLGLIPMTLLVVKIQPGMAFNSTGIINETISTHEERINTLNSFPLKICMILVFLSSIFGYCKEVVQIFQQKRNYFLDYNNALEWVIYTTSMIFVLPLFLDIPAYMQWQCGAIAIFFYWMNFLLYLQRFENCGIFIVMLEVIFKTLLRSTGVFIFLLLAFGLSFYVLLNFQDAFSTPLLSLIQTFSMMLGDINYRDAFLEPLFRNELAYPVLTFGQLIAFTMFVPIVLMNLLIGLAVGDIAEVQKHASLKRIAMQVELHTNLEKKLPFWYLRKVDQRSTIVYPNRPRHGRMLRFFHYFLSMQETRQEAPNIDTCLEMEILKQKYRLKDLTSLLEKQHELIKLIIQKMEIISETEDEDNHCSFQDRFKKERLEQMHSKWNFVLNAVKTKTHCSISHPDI
Sequence of Transient receptor potential cation channel subfamily A member 1 (Homo sapiens, UniProt O75762) (O75762 whole entry): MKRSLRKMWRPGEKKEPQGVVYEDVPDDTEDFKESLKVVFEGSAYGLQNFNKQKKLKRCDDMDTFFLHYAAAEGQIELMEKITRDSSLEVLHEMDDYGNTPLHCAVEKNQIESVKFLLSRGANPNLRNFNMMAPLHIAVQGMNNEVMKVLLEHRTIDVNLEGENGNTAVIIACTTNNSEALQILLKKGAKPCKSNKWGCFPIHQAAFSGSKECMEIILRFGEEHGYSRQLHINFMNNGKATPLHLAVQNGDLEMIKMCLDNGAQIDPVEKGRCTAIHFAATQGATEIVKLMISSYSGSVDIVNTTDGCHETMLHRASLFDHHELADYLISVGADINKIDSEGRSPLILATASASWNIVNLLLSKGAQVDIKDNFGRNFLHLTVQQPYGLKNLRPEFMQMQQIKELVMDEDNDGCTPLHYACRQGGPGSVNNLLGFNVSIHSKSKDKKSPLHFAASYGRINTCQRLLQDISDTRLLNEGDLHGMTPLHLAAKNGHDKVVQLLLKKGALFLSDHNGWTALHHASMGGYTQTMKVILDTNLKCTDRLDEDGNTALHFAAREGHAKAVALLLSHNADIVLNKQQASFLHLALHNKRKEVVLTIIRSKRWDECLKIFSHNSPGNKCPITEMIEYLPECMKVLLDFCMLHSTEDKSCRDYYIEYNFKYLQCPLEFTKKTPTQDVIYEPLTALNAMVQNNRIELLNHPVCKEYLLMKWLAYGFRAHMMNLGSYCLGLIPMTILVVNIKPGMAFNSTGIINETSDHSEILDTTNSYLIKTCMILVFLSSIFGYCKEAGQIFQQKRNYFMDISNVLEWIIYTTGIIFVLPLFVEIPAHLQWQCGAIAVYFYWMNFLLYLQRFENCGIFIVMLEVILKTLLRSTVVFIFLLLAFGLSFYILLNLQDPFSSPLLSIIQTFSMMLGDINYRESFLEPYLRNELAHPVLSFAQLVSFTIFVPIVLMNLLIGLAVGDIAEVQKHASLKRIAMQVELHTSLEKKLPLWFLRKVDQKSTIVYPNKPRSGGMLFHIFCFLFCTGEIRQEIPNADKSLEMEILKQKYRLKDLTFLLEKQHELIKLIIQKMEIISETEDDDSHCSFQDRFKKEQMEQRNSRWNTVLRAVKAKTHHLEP
Sequence of Transient receptor potential cation channel subfamily V member 4 (Homo sapiens) (Q9HBA0 whole entry): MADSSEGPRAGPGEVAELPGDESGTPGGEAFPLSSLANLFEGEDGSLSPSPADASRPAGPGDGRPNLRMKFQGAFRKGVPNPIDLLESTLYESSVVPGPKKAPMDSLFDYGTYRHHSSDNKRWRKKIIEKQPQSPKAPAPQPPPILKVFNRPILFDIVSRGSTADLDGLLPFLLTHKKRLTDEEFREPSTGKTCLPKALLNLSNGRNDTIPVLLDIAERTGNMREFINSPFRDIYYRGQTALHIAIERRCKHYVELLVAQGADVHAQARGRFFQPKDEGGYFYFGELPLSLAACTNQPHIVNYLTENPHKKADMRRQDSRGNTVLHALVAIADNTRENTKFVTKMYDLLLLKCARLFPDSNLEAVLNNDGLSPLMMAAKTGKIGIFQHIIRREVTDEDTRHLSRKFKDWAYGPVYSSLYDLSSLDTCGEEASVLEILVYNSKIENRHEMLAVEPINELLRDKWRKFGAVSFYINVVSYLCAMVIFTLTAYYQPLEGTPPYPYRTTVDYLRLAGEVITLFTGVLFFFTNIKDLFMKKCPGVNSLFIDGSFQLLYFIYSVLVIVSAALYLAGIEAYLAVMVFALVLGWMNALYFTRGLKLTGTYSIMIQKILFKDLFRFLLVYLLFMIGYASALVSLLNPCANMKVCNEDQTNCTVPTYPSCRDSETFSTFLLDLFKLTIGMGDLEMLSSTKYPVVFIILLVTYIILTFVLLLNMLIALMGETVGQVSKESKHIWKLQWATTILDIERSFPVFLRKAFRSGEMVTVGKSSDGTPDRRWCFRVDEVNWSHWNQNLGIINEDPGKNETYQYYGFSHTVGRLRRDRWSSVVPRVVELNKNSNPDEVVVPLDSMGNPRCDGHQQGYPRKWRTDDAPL
Sequence of Transient receptor potential cation channel subfamily V member 1 (Homo sapiens) (Q8NER1 whole entry): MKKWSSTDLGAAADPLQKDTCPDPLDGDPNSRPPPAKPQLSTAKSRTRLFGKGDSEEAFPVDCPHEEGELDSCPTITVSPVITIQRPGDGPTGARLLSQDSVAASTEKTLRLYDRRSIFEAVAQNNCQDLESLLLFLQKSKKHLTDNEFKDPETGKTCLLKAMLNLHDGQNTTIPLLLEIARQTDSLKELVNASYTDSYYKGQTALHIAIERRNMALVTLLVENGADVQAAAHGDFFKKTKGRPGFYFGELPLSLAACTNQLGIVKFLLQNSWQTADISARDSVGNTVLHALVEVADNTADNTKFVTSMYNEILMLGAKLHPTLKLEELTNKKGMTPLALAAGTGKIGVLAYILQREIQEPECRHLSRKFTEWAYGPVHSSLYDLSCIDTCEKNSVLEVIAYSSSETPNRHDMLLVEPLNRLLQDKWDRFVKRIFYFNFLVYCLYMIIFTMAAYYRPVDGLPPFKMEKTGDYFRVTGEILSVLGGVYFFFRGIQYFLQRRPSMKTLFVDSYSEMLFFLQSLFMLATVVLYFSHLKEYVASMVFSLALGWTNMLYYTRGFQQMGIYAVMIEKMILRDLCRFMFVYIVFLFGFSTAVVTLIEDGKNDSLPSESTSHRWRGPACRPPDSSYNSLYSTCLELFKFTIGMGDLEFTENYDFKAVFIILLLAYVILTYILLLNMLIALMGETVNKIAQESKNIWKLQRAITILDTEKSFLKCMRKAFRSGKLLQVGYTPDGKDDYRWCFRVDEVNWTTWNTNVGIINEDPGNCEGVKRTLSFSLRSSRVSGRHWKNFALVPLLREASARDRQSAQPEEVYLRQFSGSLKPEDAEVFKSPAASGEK
Sequence of Transient receptor potential cation channel subfamily A member 1 (Rattus norvegicus) (Q6RI86 whole entry): as the sequence (Q6RI86 whole entry) above

For `CC(C)CNc1nc(N2CCN(CC3CCCOC3)CC2)ncc1C(=O)NCc1ccccc1` (stereo not given), the result (in series [1]; in series [2]; in the series filed under Mus musculus [5]; in series [7]; in the series with Mus musculus [8]; in series [10]) was inactive. Besides, the outcome in [13] and in [14] was inactive. Also, the inhibition in series [3], in series [6], in series [11], in series [12] and in series [16] was under 10% throughout. This compound registered a solubility in [4] of 6.4 µM (≈ 2.99 µg/mL). Besides, in the series filed under Mus musculus [9], the result was Active. For the same compound, the EC50 is 0.097 µM in series [15] and 0.023 µM in series [17] (read-out: EC50).
As to `O=C(NCc1ccccc1)c1cnc(N2CCN(CC3CCCOC3)CC2)nc1NC1CC1` (stereo not given), the EC50 in series [15] came to 0.848 µM; in [17] (read-out: EC50), 0.109 µM.
With `O=C(NCc1ccccc1)c1cnc(N2CCN(Cc3ccccc3)CC2)nc1NC1CC1`, the EC50 in series [15] is 0.468 µM; in series [17] (hek293), “Not Active”.
For the compound `CC(C)CNc1nc(N2CCN(Cc3ccccc3)CC2)ncc1C(=O)NCc1ccccn1`, the values for the half-maximal effective concentration (EC50) in series [15] and in series [17] (hek293) were 2.25 µM and “Not Active”, respectively.
For `O=C(NCc1ccccc1)c1cnc(N2CCN(C(=O)c3ccccc3)CC2)nc1NC1CC1`, in that order: 5.6 µM and “Not Active”.
Turning to `COCCNC(=O)c1cnc(N2CCN(Cc3ccccc3)CC2)nc1NCC(C)C`, the EC50 in [15] was 0.581 µM; in series [17] (hek293), “Not Active”.
In the case of `CCCCN1CCN(c2ncc(C(=O)NCc3ccccc3)c(NC3CC3)n2)CC1`, in series [18], the activation was found to be 30%. Moreover, the EC50 entry in series [17] (hek293) is “Not Active”.
With `O=C(NCc1ccccc1)c1cnc(N2CCN(C(=O)c3c(F)cccc3F)CC2)nc1NC1CC1`, the EC50 in series [15] amounted to 0.186 µM; in series [17] (read-out: EC50) it was 0.027 µM.
The like results for `CC(C)CNc1nc(N2CCN(Cc3ccccc3)CC2)ncc1C(=O)NCc1ccccc1` were, in that order, 0.175 µM and 0.079 µM.
The like results for `CC(C)CNc1nc(N2CCN(Cc3ccccc3)CC2)ncc1C(=O)NCc1cccnc1` were, in that order, 0.215 µM and 0.049 µM.
